In assay [1] the test system is OVCAR-5 cells. Briefly: Intracellular NAD+ levels measurement (cycling assay). It is filed as cell-based. As to conditions: for Effect on NAD+ levels combined with FK866: 200 µM compound with 3 nM FK866, 24 h; for NAD levels: 200 µM compound with 3 nM FK866, after 72 h of incubation as printed. The method, then: The compounds were prepared as described above. OVCAR-5 cells were seeded in a 12-well plate (1 × 10^5/well). The day after, cells were treated with combinations of each selected compound (200 µM, final concentration) and FK866 (3 nM, final concentration) and were incubated at 37 °C and 5% CO2. […] Cell lysates were subsequently collected, transferred to new tubes, and diluted in 100 mM Na2HPO4 at pH 8. To determine the amount of NAD^+, we utilized a sensitive cyclic assay that takes advantage of the enzymatic activity of ADH [23]. Briefly, 0.1 mL of the cycling reagent (2% (v/v) ethanol, 100 μg/mL ADH, 20 μM resazurin, 5 μg/mL diaphorase, 10 μM FMN, 10 mM nicotinamide, and 100 mM sodium phosphate, pH 8.0) were added to each well, containing 0.1 mL of each diluted sample. The increase in resorufin fluorescence (544 nm excitation, 590 nm emission) was measured every min over a 2 h period using a fluorescence plate reader (Fluostar Optima, BMG Labtechnologies GmbH, Offenburg, Germany). A NAD^+ standard curve was always run in parallel in each assay.

In assay [2] the test system is OVCAR-5 cells. Briefly: Cell viability, sulforhodamine B assay, with or without FK866. As to conditions: for Sensitization of cells to FK866 (cell viability in combination): 200 µM compound with FK866 0 to 100 nM; for Combination index (CI): CompuSyn; for viability at 200 µM: Homo sapiens, OVCAR-5, 200 µM compound with 3 nM FK866, 72 h. It is filed as cell-based. The method, then:
The OVCAR-5 cell line was obtained from the NCI-60 panel. Cells were seeded in 96-well plates (3 × 10^3 cells/well) and were treated with the selected compounds at a 200 µM final concentration or with 0.2% DMSO the day after, in combination with increasing concentrations of FK866, ranging from 0 to 100 nM. Treated cells were incubated at 37 °C and 5% CO2 for 72 h. At the end of the treatment, trichloroacetic acid (TCA) (10% final concentration) was added to each well. After 20 min at 4 °C, the wells were washed 4 times with tap water to remove TCA, and they were let to dry. Cell viability was evaluated with the sulforhodamine B assay, as previously described.
On the technique in general: In SRB staining, fixed cells bind dye roughly in proportion to their protein.

Assay [3] addresses T1, human recombinant NAPRT (Homo sapiens, UniProt Q6XQN6).
T1 sequence (Q6XQN6 1-538): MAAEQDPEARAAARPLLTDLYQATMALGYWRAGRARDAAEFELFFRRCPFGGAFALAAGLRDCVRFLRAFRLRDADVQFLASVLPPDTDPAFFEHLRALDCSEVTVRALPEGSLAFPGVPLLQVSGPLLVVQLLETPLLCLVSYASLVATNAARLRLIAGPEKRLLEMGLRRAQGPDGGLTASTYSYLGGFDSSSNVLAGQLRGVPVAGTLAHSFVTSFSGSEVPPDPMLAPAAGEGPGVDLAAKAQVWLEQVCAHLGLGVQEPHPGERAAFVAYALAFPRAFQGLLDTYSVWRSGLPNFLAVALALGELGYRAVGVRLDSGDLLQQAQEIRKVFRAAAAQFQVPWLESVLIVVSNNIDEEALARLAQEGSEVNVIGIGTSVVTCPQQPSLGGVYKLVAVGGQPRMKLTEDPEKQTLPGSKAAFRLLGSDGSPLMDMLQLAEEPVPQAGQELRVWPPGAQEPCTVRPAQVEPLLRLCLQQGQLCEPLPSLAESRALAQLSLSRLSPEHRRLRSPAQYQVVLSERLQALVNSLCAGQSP
Kind of assay: Continuous coupled fluorometric NADH assay of NAPRT activity. The settings on record: for Inhibitory activity against NAPRT (in words): screening at 0.5 mM.
Procedure: NADH fluorescence was monitored continuously at 37 °C for 30 min, using a 96-well plate in a Sinergy HT microplate reader (Bio-Tek, Winooski, VT, USA) set at excitation and emission wavelengths of 340 nm and 460 nm, respectively. The slope of the linear fit of fluorescence versus time was used to calculate the NAPRT activity by referring to an NADH standard curve, obtained by plotting the fluorescence of a known amount of NADH versus the nucleotide concentrations. […] These mixtures were optimized to make NadD the rate-limiting enzyme of the ancillary system, i.e., concentrations of the enzyme NadD and the NAMN substrate were chosen to guarantee a linear time course of the fluorescence increase up to 30 min.
The analyzed compounds were dissolved in 100% v/v DMSO. Few compounds were dissolved in water. The compounds were tested at a 0.5 mM concentration. […] The screening was started by using the NADH assay. […] The fluorescence increase was monitored continuously, which allowed us to easily estimate the quality of data and to identify potential artifacts (e.g., arising from compounds precipitation). […] One inhibitor control for each tested compound (compound and no NAPRT), as well as four positive controls (NAPRT and no compound) and four negative controls (no NAPRT and no compound) were included in every reaction plate. The percentage inhibition was calculated relative to the controls as follows: % inhibition=(Si−Ci)/(µp−µn)×100 where Si represents the signal in the presence of the compound; Ci is the signal of the inhibitor control; and µp and µn are the mean values of the signals of the positive and negative controls, respectively.
The IC50 value was determined by plotting the rates versus inhibitor concentration and fitting to the equation: Vi = V0/(1 + [I]/IC50) using GraphPad Prism 7. V0 and Vi represent initial rates in the absence and presence of the inhibitor at concentration [I], respectively.
Ki values were calculated from the straight line deriving from the replotting of the slopes of the reciprocal plot against the concentrations of the inhibitor (secondary plot). In particular, the straight line intersects the x-axis at [I] = −Ki [28].

For assay [4], the target named is T1, human recombinant NAPRT. Briefly: Resazurin/diaphorase-coupled assay of NAPRT activity. It is filed as biochemical. The arrangement: inferred from purification on a HisTrap IMAC column with imidazole elution; made in house; host or cells: E. coli BL21 (D3). The settings on record: 0.5 mM compound; 0.1 mM NA, 0.4 mM PRPP; resazurin/diaphorase-coupled assay (optical interference at NADH wavelength).
Procedure: The NAPRT concentration was 0.004 × 10^−3 U/mL (2 nM). […] The increase in fluorescence due to resorufin formation in the assay was monitored continuously for 30 min, at 590 nm, after excitation at 530 nm, using a 96-well plate in the Sinergy HT microplate reader at 37 °C. […] To determine the NAPRT activity, the first derivative of the recorded fluorescence curve was calculated, and the slope of the corresponding curve was referred to a standard curve obtained by plotting the fluorescence rate recorded in assay mixtures containing known amounts of NAD^+ in the absence of NAPRT, NadD, and NadE versus the dinucleotide concentrations.
The analyzed compounds were dissolved in 100% v/v DMSO. Few compounds were dissolved in water. The compounds were tested at a 0.5 mM concentration. […] The screening was started by using the NADH assay. […] One inhibitor control for each tested compound (compound and no NAPRT), as well as four positive controls (NAPRT and no compound) and four negative controls (no NAPRT and no compound) were included in every reaction plate. The percentage inhibition was calculated relative to the controls as follows: % inhibition=(Si−Ci)/(µp−µn)×100 where Si represents the signal in the presence of the compound; Ci is the signal of the inhibitor control; and µp and µn are the mean values of the signals of the positive and negative controls, respectively.

In assay [5] the target is T1, human recombinant NAPRT. Kind of assay: HPLC assay of NAPRT activity. It is filed as biochemical. Further details: inferred from purification on a HisTrap IMAC column with imidazole elution; made in house; host or cells: E. coli BL21 (D3). The settings on record: 0.5 mM compound; 0.1 mM NA, 0.4 mM PRPP; HPLC assay (interference with both fluorometric assays).
Procedure: The amount of enzyme was optimized to provide substrate consumption below 20% of the initial concentration after 10 min of incubation at 37 °C. In addition, withdrawals from the reaction mixture at 5 and 10 min were always performed to ensure a linear time frame. The reaction was stopped by acidification with 0.6 M HClO4. After 10 min on ice, samples were clarified by centrifugation for 2 min at 13,000× g. The supernatants were neutralized with 0.8 M K2CO3, frozen at −20 °C for about 20 min, centrifuged at 13,000× g for 5 min, and injected onto a Supelcosil LC-18-S column (5 µm; 250 × 4.6 mm) thermostatted at 8 °C. […] The elution was monitored at 260 nm (Shimadzu SPD-M20A), and the formed NAMN was quantified by referring to an appropriate standard.
The analyzed compounds were dissolved in 100% v/v DMSO. […] The fluorescence increase was monitored continuously, which allowed us to easily estimate the quality of data and to identify potential artifacts (e.g., arising from compounds precipitation). […] The percentage inhibition was calculated relative to the controls as follows: % inhibition=(Si−Ci)/(µp−µn)×100 where Si represents the signal in the presence of the compound; Ci is the signal of the inhibitor control; and µp and µn are the mean values of the signals of the positive and negative controls, respectively.
Setting [6] is: FK866 dose 3 nM with 200 µM compound.
Setting [7] is: FK866 dose 10 nM with 200 µM compound.
Setting [8] is: FK866 dose 30 nM with 200 µM compound.
Where [9] appears, read: FK866 dose 100 nM with 200 µM compound.
Where [10] appears, read: 0.5 mM compound, 0.1 mM NA, 0.4 mM PRPP, NADH assay.
Where [11] appears, read: towards NA, NA 10 to 50 µM at 0.4 mM PRPP, NADH assay.

“Also recorded” adds a separate entry of the source. Where two headings read alike, the source gives them in different places. A value given as a limit tells only on which side of the number the result lay.

Broadly, the viability is a read-out of living cells in per cent, often relative to untreated cells. A word on the IC50: it is the concentration that inhibits the measured activity by half. The Ki is a measure of affinity in units of concentration, obtained from inhibition or displacement. For orientation: inhibition means the change of the read-out against control, counted positive when it falls.

Consider `O=C(O)c1cccnc1O` [Compound 1, 2-hydroxynicotinic acid], for which the “Effect on NAD+ levels combined with FK866” value in assay [1] is “most effective”. The NAD levels entry in assay [1] is “about 15%”. For the same compound, the “Sensitization of cells to FK866 (cell viability in combination)” value (shortened to “Sensitization of cells to FK866”) in assay [2] (72 h) is “reduced cell viability when combined with FK866”; in assay [2] (72 h, listed as 2-hydroxynicotinic acid), “sensitize OVCAR-5 cells to the NAMPT inhibitor FK866; also recorded: effective in sensitizing tumor cells to NAMPT inhibitors”. Moreover, the “Combination index (CI)” value in assay [2] (setting [6]) came to 0.5117; in assay [2] (setting [7]), 0.3255; in assay [2] (setting [8]) it was 0.339; in assay [2] (setting [9]), 0.3592. The viability at 200 µM in assay [2] is roughly 75%.

For `Nc1ncccc1C(=O)O` [Compound 2, 2-aminonicotinic acid], in assay [3], the IC50 turned out to be 609 ± 69 µM and the inhibitory constant (Ki) was 348 ± 36 µM. Also, the inhibition at 500 µM in assay [3] (setting [10]) was found to be 38%. In addition, the “Inhibition Mechanism” value in assay [3] (setting [11]) was “mixed”. Also, in assay [2] (72 h), the “Sensitization of cells to FK866” value is reported as “did not significantly sensitize cells to FK866 toxicity”.

Turning to `O=C(O)c1cccnc1F` [Compound 3, 2-fluoronicotinic acid], in assay [3], the IC50 is 351 ± 38 µM and the inhibition constant Ki amounted to 149 ± 14 µM. In addition, the inhibition at 500 µM in assay [3] (setting [10]) came to 57%. The “Inhibition Mechanism” value in assay [3] (setting [11]) is listed as “non-competitive”. Also, the “Sensitization of cells to FK866” value in assay [2] (72 h) was “did not significantly sensitize cells to FK866 toxicity”.

For `O=C(O)c1ccc(Cl)nc1` [Compound 4, 6-chloronicotinic acid], in assay [3], the half-inhibitory concentration (IC50) was found to be 1260 ± 115 µM, the “Inhibition Mechanism” value worked out at 845 ± 69 non-competitive, the inhibition constant (Ki) was determined as 845 ± 69 µM and the inhibition at 500 µM turned out to be 44%.

`O=C(O)c1cccnc1C(=O)O` [Compound 7, 2,3-pyridine dicarboxylic acid]: the inhibition at 500 µM in assay [3] (setting [10]) was 9%.

For the compound `O=C(O)c1ccc(O)nc1` [Compound 8, 6-hydroxynicotinic acid], the inhibition at 500 µM in assay [3] is 0%.

Consider `O=C(O)c1cnccn1` [Compound 9, pyrazine-2-carboxylic acid], for which the “Effect on NAD+ levels combined with FK866” value in assay [1] is recorded as “most effective”. In assay [1], the NAD levels is on record as roughly 30%. The “Sensitization of cells to FK866” value in assay [2] (72 h) is reported as “reduced cell viability when combined with FK866”; in assay [2] (72 h, listed as pyrazine-2-carboxylic acid), “sensitize OVCAR-5 cells to the NAMPT inhibitor FK866”. Besides, the “Combination index (CI)” value in assay [2] (setting [6]) is recorded as 0.198; in assay [2] (setting [7]), 0.0673; in assay [2] (setting [8]) it was 0.03276; in assay [2] (setting [9]), 0.01211. For the same compound, the viability at 200 µM in assay [2] was roughly 80%.

With `Nc1nccnc1C(=O)O` [Compound 10, 3-aminopyrazine-2-carboxylic acid], in assay [4], the inhibition at 500 µM turned out to be 6%.

As for `NC(=O)c1cnccn1` [Compound 12, pyrazinamide], the inhibition at 500 µM in assay [3] (setting [10]) amounted to 0%.

`O=C(O)Cc1cnccn1` [Compound 13, 2-pyrazine acetic acid]: the inhibition at 500 µM in assay [3] (setting [10]) amounted to 0%.

Consider `Cc1cnc(C(=O)O)c[n+]1[O-]` [Compound 14, Acipimox], for which the inhibition at 500 µM in assay [3] (setting [10]) is 0%.

Take `O=C(O)c1cccnn1` [Compound 15, 3-pyridazine carboxylic acid]: in assay [3], the 50% inhibitory concentration (IC50) came out at 1370 ± 74 µM and the Ki came out at 513 ± 13 µM. Further, in assay [3] (setting [10]), the inhibition at 500 µM is 30%. In addition, in assay [3] (setting [11]), the “Inhibition Mechanism” value was “mixed inhibitor”.

With `O=C(O)c1ccccc1O` [Compound 17, salicylic acid], in assay [3], the half-maximal inhibitory concentration (IC50) worked out at 351 ± 19 µM and the inhibition constant Ki is 169 ± 15 µM. Besides, in assay [3] (setting [10]), the inhibition at 500 µM was determined as 58%. Further, the “Inhibition Mechanism” value in assay [3] (setting [11]) is recorded as “noncompetitive inhibition; also recorded: non- competitive”. In addition, the “Effect on cell viability in the absence of FK866” value in assay [2] (200 µM compound, 72 h, no FK866) is given as “toxicity”.

As to `CC(=O)Oc1ccccc1C(=O)O` [Compound 18, acetyl salicylic acid], the inhibition at 500 µM in assay [3] (setting [10]) was 11%.

As to `O=C(O)c1ccccc1` [Compound 19, benzoic acid], the inhibition at 500 µM in assay [3] was found to be 8%.

For `Nc1ccccc1C(=O)O` [Compound 20, anthranilic acid], the inhibition at 500 µM in assay [3] was determined as 5%.

For the compound `Nc1c(O)cccc1C(=O)O` [Compound 21, 3-hydroxy anthranilic acid], the inhibition at 500 µM in assay [5] is 5%.

On to `O=C(O)c1ccccc1N=Nc1ccc(O)cc1` [Compound 22, 2-(4-hydroxyphenylazo) benzoic acid], for which the inhibition at 500 µM in assay [5] was 5%.

As for `O=C(O)c1cccc(N2CCOCC2)c1` [Compound 24, 3-morpholinobenzoic acid], the inhibition at 500 µM in assay [4] turned out to be 0%.

Turning to `O=C(O)c1ccccn1` [Compound 25, 2-picolinic acid], the inhibition at 500 µM in assay [3] (setting [10]) stood at 6%.

`O=C(O)c1ccncc1` [Compound 27, isonicotinic acid]: in assay [3] (setting [10]), the inhibition at 500 µM was 0%.

`O=C(O)c1cncnc1` [Compound 28, 5-pyrimidine carboxylic acid]: the inhibition at 500 µM in assay [3] (setting [10]) was no more than 20%.

Take `O=C(O)c1ncccn1` [Compound 29, 2-pyrimidine carboxylic acid]: in assay [3] (setting [10]), the inhibition at 500 µM was no more than 20%.

Consider `Oc1ncccn1` [Compound 32, 2-hydroxypyrimidine], for which, in assay [3] (setting [10]), the inhibition at 500 µM came to 0%. For the same compound, in assay [3], the “Inhibitory activity against NAPRT (in words)” value (“Inhibitory activity” below) was “very poor inhibitors”.

Take `c1cnc(N2CCNCC2)nc1` [Compound 33, 2-(1-piperazinyl)pyrimidine]: in assay [3] (setting [10]), the inhibition at 500 µM stood at 0%. The “Inhibitory activity” value in assay [3] is reported as “very poor inhibitors”.

On to `NC1CCC(C(=O)O)CC1` (centres unmarked) [Compound 35, 4-aminocyclohexane carboxylic acid], for which the inhibition at 500 µM in assay [3] (setting [10]) is 0%. Further, in assay [3], the “Inhibitory activity” value was “inactive”.

As for `CC(=O)Nc1ccccc1` [Compound 37, acetanilide], in assay [3] (setting [10]), the inhibition at 500 µM is 0%. Also, in assay [3], the “Inhibitory activity” value is “inactive”.

Source of the values: PMC9919730, “A Versatile Continuous Fluorometric Enzymatic Assay for Targeting Nicotinate Phosphoribosyltransferase” (Molecules, 2023).
